Patent US9617256B2 (priority 2007, dated 2017)
Converted amounts (≈) assume the structure as drawn. Where two headings read alike, the source gives them in different places.

Legend:
[1] = system: APAE006 in the presence of 8 micrograms per milliliter of polymyxin B nonapeptide; format: cell-based, P. aeruginosa; settings: APAE006 with 8 micrograms per milliliter polymyxin B nonapeptide
Procedure, shortened: (§1)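 Broth microdilution (CLSI); CA-MHB; 3×10^5–7×10^5 CFU/mL final; 2-fold dilutions; 35° C., ambient air, 18-24 h. APAE006 lacks all active efflux pumps.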

[2] = system: AECO063 (ATCC25922 bearing an acrAB mutation); experiment: microbe, parasite or virus in culture; format: cell-based, E. coli; settings: Escherichia coli, ATCC25922, read-out: MIC AECO063
Procedure, shortened: (§2)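 Inocula prepared from 0.5 McFarland suspensions (final 3×10^5–7×10^5 CFU/mL) were added to 2-fold drug dilution series in cation-adjusted Mueller-Hinton broth. Plates stood 18-24 hours at 35° C. under ambient air.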

AECO001 (ATCC25922) = experiment: MIC broth microdilution, AECO001; format: cell-based, E. coli; settings: for MIC: Escherichia coli; for Ratio of MICs on AECO001 [Cpd (A = —CHCH3NH2)/Cpd (A = —C(CH3)2NH2)]: MIC of paired compound with A = —CHCH3NH2 divided by MIC of compound with A = —C(CH3)2NH2, n=2 data, pairs identical except for the A moiety
Procedure, shortened: as §2

APAE001 (ATCC27853) = experiment: MIC broth microdilution, APAE001; format: cell-based, P. aeruginosa; settings: Pseudomonas aeruginosa, ATCC27853, read-out: MIC APAE001, APAE001 (ATCC27853)
Procedure, shortened: as §2

[3] = system: AABA1060 (clinical isolate of Acinetobacter baumannii); experiment: MIC broth microdilution, AABA1060; format: cell-based; settings: Acinetobacter baumannii, read-out: MIC AABA1060
Procedure, shortened: as §2

[4] = system: APAE006 (strain of P. aeruginosa in which all efflux pumps are inactivated); experiment: microbe, parasite or virus in culture; format: cell-based; settings: Pseudomonas aeruginosa, read-out: MIC APAE006, APAE006, all efflux pumps inactivated
Procedure, shortened: as §1

[5] = system: ASAU001 (laboratory strain of S. aureus, ATCC29213); experiment: MIC broth microdilution, ASAU001; format: cell-based; settings: Staphylococcus aureus, ATCC29213, read-out: MIC ASAU001
Procedure, shortened: as §2

[6] = ATCC25922, read-out: MIC AECO001
[7] = ATCC25922, read-out: MIC AECO001 HSA AGP

Structure (SMILES)	MIC APAE006 + PMBN [1]	MIC [2]	MIC (AECO001 (ATCC25922); [6])	MIC (AECO001 (ATCC25922); [7])	MIC (APAE001 (ATCC27853))	MIC [3]	MIC [4]	MIC [5]	Ratio of MICs on AECO001 [Cpd (A = —CHCH3NH2)/Cpd (A = —C(CH3)2NH2)] (AECO001 (ATCC25922))
COc1ccc(C#CC#Cc2ccc(C(=O)N[C@H](C(=O)NO)[C@@H](C)N)cc2)cc1 [Example 82-1, N-((1S,2R)-2-Amino-1-hydroxycarbamoyl-propyl)-4-[4-(4-methoxy-phenyl)-buta-1,3-diynyl]-benzamide]	A (MIC's of 2.0 μg/mL or less = A)	< 2 mg/L	< 2 mg/L	2 to 16 mg/L (≈ 5.11 to 40.9 µM)	2 to 16 mg/L (≈ 5.11 to 40.9 µM)	2 to 16 mg/L (≈ 5.11 to 40.9 µM)	< 2 mg/L	16 to 64 mg/L (≈ 40.9 to 164 µM)	
C[C@@H](N)[C@H](NC(=O)c1ccc(C#CC#Cc2cnn(C)c2)cc1)C(=O)NO [Example 89-1, N-((2S,3R)-3-amino-1-(hydroxyamino)-1-oxobutan-2-yl)-4-((1-methyl-1H-pyrazol-4-yl)buta-1,3-diynyl)benzamide]	A (MIC's of 2.0 μg/mL or less = A)	< 2 mg/L	< 2 mg/L	2 to 16 mg/L (≈ 5.47 to 43.8 µM)	< 2 mg/L	2 to 16 mg/L (≈ 5.47 to 43.8 µM)	< 2 mg/L	16 to 64 mg/L (≈ 43.8 to 175 µM)	
CC(C)(N)[C@H](NC(=O)c1ccc(C#CC#CCC2CCCC2)cc1)C(=O)NO [Example 91-23]	A (MIC's of 2.0 μg/mL or less = A)	< 2 mg/L	< 2 mg/L	2 to 16 mg/L (≈ 5.24 to 41.9 µM)	2 to 16 mg/L (≈ 5.24 to 41.9 µM)	2 to 16 mg/L (≈ 5.24 to 41.9 µM)	< 2 mg/L	2 to 16 mg/L (≈ 5.24 to 41.9 µM)	
C[C@@H](N)[C@H](NC(=O)c1ccc(C#CC#Cc2ccc(CN3CCS(=O)(=O)CC3)cc2)cc1)C(=O)NO [Example 86-6]	A (MIC's of 2.0 μg/mL or less = A)	< 2 mg/L	< 2 mg/L	2 to 16 mg/L (≈ 3.93 to 31.5 µM)	2 to 16 mg/L (≈ 3.93 to 31.5 µM)	2 to 16 mg/L (≈ 3.93 to 31.5 µM)	< 2 mg/L	16 to 64 mg/L (≈ 31.5 to 126 µM)	
CC(C)(N)[C@H](NC(=O)c1ccc(C#CC#Cc2ccc(CNC3CC3)cc2)cc1)C(=O)NO [Example 87-4]	A (MIC's of 2.0 μg/mL or less = A)	< 2 mg/L	< 2 mg/L	2 to 16 mg/L (≈ 4.5 to 36 µM)	< 2 mg/L	< 2 mg/L	< 2 mg/L	16 to 64 mg/L (≈ 36 to 144 µM)	
CC(C)(N)[C@H](NC(=O)c1ccc(C#Cc2ccccc2)cc1)C(=O)NO [Example 133-6]	A (MIC's of 2.0 μg/mL or less = A)	< 2 mg/L	< 2 mg/L	< 2 mg/L	< 2 mg/L	< 2 mg/L	< 2 mg/L	2 to 16 mg/L (≈ 5.69 to 45.5 µM)	20.8
CCC#CC#Cc1ccc(C(=O)N[C@H](C(=O)NO)C(C)(C)N)cc1 [Example 91-1, N—((S)-2-Amino-1-hydroxycarbamoyl-2-methyl-propyl)-4-hexa-1,3-diynyl-benzamide]	A (MIC's of 2.0 μg/mL or less = A)	< 2 mg/L	< 2 mg/L	< 2 mg/L	< 2 mg/L	< 2 mg/L	< 2 mg/L	2 to 16 mg/L (≈ 6.11 to 48.9 µM)	7.2
C[C@@H](N)[C@H](NC(=O)c1ccc(C#CC(O)c2ccc(CO)cc2)cc1)C(=O)NO (stereo partly drawn) [Example 137-18]	B (MIC's of greater than 2.0 μg/mL to 16.0 μg/mL = B)	16 to 64 mg/L (≈ 40.3 to 161 µM)	16 to 64 mg/L (≈ 40.3 to 161 µM)	16 to 64 mg/L (≈ 40.3 to 161 µM)	16 to 64 mg/L (≈ 40.3 to 161 µM)	16 to 64 mg/L (≈ 40.3 to 161 µM)	2 to 16 mg/L (≈ 5.03 to 40.3 µM)	16 to 64 mg/L (≈ 40.3 to 161 µM)	
CC(C)CC#CC#Cc1ccc(C(=O)N[C@H](C(=O)NO)C(C)(C)N)cc1 [Example 91-22]	A (MIC's of 2.0 μg/mL or less = A)	< 2 mg/L	< 2 mg/L	2 to 16 mg/L (≈ 5.63 to 45 µM)	2 to 16 mg/L (≈ 5.63 to 45 µM)	2 to 16 mg/L (≈ 5.63 to 45 µM)	< 2 mg/L	2 to 16 mg/L (≈ 5.63 to 45 µM)	
CC(C)(O)[C@H](NC(=O)c1ccc(C#CC#CCC2CCCC2)cc1)C(=O)NO [Example 91-20]	A (MIC's of 2.0 μg/mL or less = A)	< 2 mg/L	< 2 mg/L	2 to 16 mg/L (≈ 5.23 to 41.8 µM)	2 to 16 mg/L (≈ 5.23 to 41.8 µM)	2 to 16 mg/L (≈ 5.23 to 41.8 µM)	2 to 16 mg/L (≈ 5.23 to 41.8 µM)	16 to 64 mg/L (≈ 41.8 to 167 µM)	
CC(C)(N)[C@H](NC(=O)c1ccc(C#C/C=C/c2ccccc2)cc1)C(=O)NO [Example 104-5]	A (MIC's of 2.0 μg/mL or less = A)	< 2 mg/L	< 2 mg/L	< 2 mg/L	2 to 16 mg/L (≈ 5.3 to 42.4 µM)	< 2 mg/L	< 2 mg/L	2 to 16 mg/L (≈ 5.3 to 42.4 µM)	
